Experimental data published in patent US20250084101A1, “COMPOUND FOR INHIBITING AND DEGRADING IRAK4, AND PHARMACEUTICAL COMPOSITION AND PHARMACEUTICAL APPLICATION THEREOF” (XIZANG HAISCO PHARMACEUTICAL CO., LTD., priority 2022, published 2025).
Structures can show the parent of a compound that is named as a salt. Where two headings read alike, the source gives them in different places.

How the values were obtained:
IRAK4 protein = molecular target: T1, IRAK4 protein (Homo sapiens, UniProt Q9NWZ3); assay: IRAK4 degradation activity in hPBMC cells (24 hours); type: cell-based; conditions: for Remaining IRAK4 protein IRAK4%: 100 nM, relative to vehicle control
T1 construct: endogenous in cells; host or cells: human peripheral blood mononuclear cells (hPBMC) from healthy volunteers
T1 sequence (Q9NWZ3 1-460): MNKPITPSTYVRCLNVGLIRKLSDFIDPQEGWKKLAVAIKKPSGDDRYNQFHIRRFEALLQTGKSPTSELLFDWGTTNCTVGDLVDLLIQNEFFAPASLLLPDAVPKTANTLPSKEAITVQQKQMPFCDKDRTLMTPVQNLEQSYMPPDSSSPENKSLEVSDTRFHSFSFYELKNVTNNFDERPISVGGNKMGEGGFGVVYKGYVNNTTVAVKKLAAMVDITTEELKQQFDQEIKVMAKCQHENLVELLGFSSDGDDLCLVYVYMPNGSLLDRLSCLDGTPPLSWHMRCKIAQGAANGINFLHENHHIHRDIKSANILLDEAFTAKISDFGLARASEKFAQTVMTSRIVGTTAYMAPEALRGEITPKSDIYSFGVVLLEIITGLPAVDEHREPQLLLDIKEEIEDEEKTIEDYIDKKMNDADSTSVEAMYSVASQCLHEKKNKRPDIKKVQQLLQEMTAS
Method: hPBMC cells are human peripheral blood mononuclear cells. Peripheral venous blood was taken from healthy volunteers, and hPBMCs were isolated using Ficoll density gradient centrifugation (Ficoll-Paque™ PLUS 1.077, GE, Cat. 17-1140-02). Culture conditions: RPMI-1640+10% FBS+1% penicillin-streptomycin solution. The cells were cultured in an incubator at 37° C. and 5% CO2. The cells were plated in a 24-well plate at 1×10^6 cells/well. After plating, compounds at different concentrations were added, and the cells were cultured in an incubator at 37° C. and 5% CO2 for 24 hours. After the culture was completed, the cells were collected, and RIPA lysis buffer (beyotime, Cat. P0013B) was added. The cells were lysed on ice for 20 minutes, and then centrifuged at 12000 rpm at 4° C. for 10 minutes. The protein sample of the supernatant was collected, the protein was quantified using a BCA kit (Beyotime, Cat. P0009), and then the protein was diluted to 1 mg/mL. The expression of IRAK4 (CST, Cat. 4363S) and the internal reference cofilin (CST, Cat. 5175S) were detected using a fully automated western blot quantitative analyzer (Proteinsimple). The expression level of IRAK4 relative to the internal reference was calculated using compass software. The remaining IRAK4 protein IRAK4% relative to the vehicle control group at different doses was calculated using formula (1), and the IRAK4 protein degradation relative to the vehicle control group at different doses was calculated using formula (2), where IRAK4administration was the expression level of IRAK4 in the administration groups at different doses, and IRAK4vehicle was the expression level of IRAK4 in the vehicle control group. An IRAK4 degradation-drug concentration curve was fit using Graphpad Prism 8 software, and the DC50 was calculated.

[1] = Pharmacokinetic test in mice; type: in vivo, ICR mice; conditions: plasma, i.g. 10 mg/kg
Method: Experimental animals: Male ICR mice, about 25 g, 6 mice/compound, purchased from Chengdu Ddossy Experimental Animals Co., Ltd.
Test design: On the day of the experiment, 6 ICR mice were randomly grouped according to their body weights. The animals were fasted with water available for 12 to 14 h one day before the administration, and were fed 4 h after the administration.
• Vehicle for intravenous administration: 5% DMA+5% Solutol+90% Saline; • Vehicle for intragastric administration: 5% DMSO+30% PEG400+65% (20% SBE-CD); (DMSO: dimethyl sulfoxide; DMA: dimethylacetamide; Solutol: polyethylene glycol-15-hydroxystearate; PEG400: polyethylene glycol 400; SBE-β-CD: sulfobutyl-β-cyclodextrin; Saline: physiological saline)
Before and after the administration, 0.15 mL of blood was taken from the orbit of the animals under isoflurane anesthesia and placed in an EDTAK2 centrifuge tube. The blood was centrifuged at 5000 rpm and 4° C. for 10 min to collect plasma. The blood collection time points for the intravenous administration group and intragastric administration group were 0 min, 5 min, 15 min, 30 min, 1 h, 2 h, 4 h, 7 h and 24 h. Before analysis and detection, all samples were stored at −60° C. The samples were analyzed quantitatively by LC-MS/MS.

[2] = molecular target: T2, hERG potassium ion channel (Homo sapiens, UniProt Q12809); assay: Effect on hERG potassium ion channel (manual patch-clamp, CHO cells); type: cell-based; conditions: CHO cells stably expressing hERG, whole cell patch-clamp
T2 construct: expressed in transfected cells; host or cells: CHO (Chinese hamster ovary) cells stably expressing hERG
T2 sequence (Q12809 whole entry): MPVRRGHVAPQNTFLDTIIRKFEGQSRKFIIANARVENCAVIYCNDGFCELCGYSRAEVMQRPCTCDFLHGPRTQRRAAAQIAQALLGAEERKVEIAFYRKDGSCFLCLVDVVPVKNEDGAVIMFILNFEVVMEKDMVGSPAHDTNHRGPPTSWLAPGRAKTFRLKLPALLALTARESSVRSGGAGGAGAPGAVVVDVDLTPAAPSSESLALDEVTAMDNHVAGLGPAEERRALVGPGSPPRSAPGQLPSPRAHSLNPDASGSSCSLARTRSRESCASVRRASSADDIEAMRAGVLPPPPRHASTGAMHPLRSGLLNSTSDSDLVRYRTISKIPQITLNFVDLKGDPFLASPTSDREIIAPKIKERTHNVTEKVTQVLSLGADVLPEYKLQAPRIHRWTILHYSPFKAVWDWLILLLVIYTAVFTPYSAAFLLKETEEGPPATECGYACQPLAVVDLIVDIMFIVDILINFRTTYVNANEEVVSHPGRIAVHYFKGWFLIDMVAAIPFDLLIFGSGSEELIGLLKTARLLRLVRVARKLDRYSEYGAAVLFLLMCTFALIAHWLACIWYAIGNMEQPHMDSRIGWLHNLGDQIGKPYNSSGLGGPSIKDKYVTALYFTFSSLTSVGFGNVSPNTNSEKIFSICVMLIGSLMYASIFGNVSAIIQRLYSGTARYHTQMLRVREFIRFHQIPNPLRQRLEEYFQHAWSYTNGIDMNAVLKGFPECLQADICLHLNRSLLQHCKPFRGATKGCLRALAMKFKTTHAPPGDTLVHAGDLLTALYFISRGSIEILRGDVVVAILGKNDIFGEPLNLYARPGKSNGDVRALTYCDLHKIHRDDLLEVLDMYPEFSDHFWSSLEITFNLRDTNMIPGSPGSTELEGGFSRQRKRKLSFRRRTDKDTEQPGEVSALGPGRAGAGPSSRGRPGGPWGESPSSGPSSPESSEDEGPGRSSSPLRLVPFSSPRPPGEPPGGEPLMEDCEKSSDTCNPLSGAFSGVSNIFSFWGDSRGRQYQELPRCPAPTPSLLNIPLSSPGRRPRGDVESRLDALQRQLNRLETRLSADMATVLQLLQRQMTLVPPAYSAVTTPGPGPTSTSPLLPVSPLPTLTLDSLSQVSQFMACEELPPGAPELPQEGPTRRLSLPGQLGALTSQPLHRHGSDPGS
Source text: Experimental platform: electrophysiological manual patch-clamp system
Cell line: Chinese hamster ovary (CHO) cell line stably expressing hERG potassium ion channel
Experimental method: In CHO (Chinese Hamster Ovary) cells stably expressing hERG potassium channel, whole cell patch-clamp technique was used to record hERG potassium channel current at room temperature. The glass microelectrode was made of a glass electrode blank (BF150-86-10, Sutter) by a puller. The tip resistance after filling the liquid in the electrode was about 2-5 MQ. The glass microelectrode can be connected to the patch-clamp amplifier by inserting the glass microelectrode into an amplifier probe. The clamping voltage and data recording were controlled and recorded by the pClamp 10 software through a computer. The sampling frequency was 10 kHz, and the filtering frequency was 2 kHz. After the whole cell records were obtained, the cells were clamped at −80 mV, and the step voltage that induced the hERG potassium current (lhERG) was depolarized from −80 mV to +20 mV for 2 s, then repolarized to −50 mV, and returned to −80 mV after 1 s. This voltage stimulation was given every 10 s, and the administration process was started after the hERG potassium current was confirmed to be stable (at least 1 minute). The compound was administered for at least 1 minute at each test concentration, and at least 2 cells (n≥2) were tested at each concentration.
Data processing: Data analysis processing was carried out by using pClamp 10, GraphPad Prism 5 and Excel software. The inhibition degree of hERG potassium current (peak value of hERG tail current induced at −50 mV) at different compound concentrations was calculated by the following formula:
[formula] • where Inhibition % represents the percentage of inhibition of hERG potassium current by the compound, and l and lo represent the amplitude of hERG potassium current after and before the administration, respectively.
Compound IC50 was calculated using GraphPad Prism 5 software by fitting according to the following equation:
[formula] • where X represents the Log value of the tested concentration of the test sample, Y represents the inhibition percentage at the corresponding concentration, and Bottom and Top represent the minimum and maximum inhibition percentage, respectively.

[3] = read-out: IC50 for inhibitory effect on hERG potassium channel current
[4] = male, ICR, mouse, po, 10 mg/kg, read-out: AUC0-t

[2H]C([2H])([2H])n1nc(C2CCC(=O)NC2=O)c2cccc(C#CCOC3CCN(C[C@H]4CC[C@H](n5cc(NC(=O)c6cnn7ccc(N8C[C@H]9C[C@@H]8CO9)nc67)c(C(F)F)n5)CC4)CC3)c21 (relative stereo) [Compound 7, Trans-5-((1R,4R)-2-oxa-5-azabicyclo[2.2.1]heptan-5-yl)-N-(3-(difluoromethyl)-1-(4-((4-((3-(3-(2,6-dioxopiperidin-3-yl)-1-(methyl-d3)-1H-indazol-7-yl)prop-2-yn-1-yl)oxy)piperidin-1-yl)methyl)cyclohexyl)-1H-pyrazol-4-yl) pyrazolo[1,5-a]pyrimidine-3-carboxamide]
Remaining IRAK4 protein IRAK4% (IRAK4 protein): A (A ≤ 10%)

CC(C)n1nc(C2CCC(=O)NC2=O)c2cccc(C#CCOC3CCN(C[C@H]4CC[C@H](n5cc(NC(=O)c6cnn7ccc(N8C[C@H]9C[C@@H]8CO9)nc67)c(C(F)F)n5)CC4)CC3)c21 (single isomer, unassigned) [Chiral isomer 1 of compound 8]
Remaining IRAK4 protein IRAK4% (IRAK4 protein): B (10% < B ≤ 50%)

Cn1nc(C2CCC(=O)NC2=O)c2cccc(C#CCO[C@@H]3CCN(C[C@H]4CC[C@H](n5cc(NC(=O)c6cnn7ccc(N8CCO[C@@H](CO)C8)nc67)c(C(F)F)n5)CC4)C[C@@H]3F)c21 (single isomer, unassigned) [Chiral isomer 1 of compound 19]
DC50 (IRAK4 protein): < 0.02 µM | AUC(0-t) [1]: 13407 ± 4034 ng·h/mL | IC50 [2, 3]: > 20 µM

Cn1nc(C2CCC(=O)NC2=O)c2cccc(C#CCO[C@H]3CCN(C[C@H]4CC[C@H](n5cc(NC(=O)c6cnn7ccc(N8CCO[C@@H](CO)C8)nc67)c(C(F)F)n5)CC4)C[C@H]3F)c21 (single isomer, unassigned) [Chiral isomer 1 of compound 24]
DC50 (IRAK4 protein): < 0.02 µM | IC50 [2, 3]: > 40 µM

Cn1nc(C2CCC(=O)NC2=O)c2cccc(C#CCO[C@H]3CCN(C[C@H]4CC[C@H](n5cc(NC(=O)c6cnn7ccc(N8CCO[C@H](CO)C8)nc67)c(C(F)F)n5)CC4)C[C@H]3F)c21 (single isomer, unassigned) [Chiral isomer 1 of compound 25]
DC50 (IRAK4 protein): < 0.02 µM | IC50 [2, 3]: > 40 µM

Cn1nc(C2CCC(=O)NC2=O)c2cccc(C#CCO[C@@H]3CCN(C[C@H]4CC[C@H](n5cc(NC(=O)c6cnn7ccc(N8CCO[C@@H](CO)C8)nc67)c(C(F)F)n5)CC4)C[C@@H]3F)c21 (single isomer, unassigned) [Chiral isomer 2 of compound 19]
DC50 (IRAK4 protein): < 0.02 µM

COC[C@H]1CN(c2ccn3ncc(C(=O)Nc4cn([C@H]5CC[C@H](CN6CC[C@H](OCC#Cc7cccc8c(C9CCC(=O)NC9=O)nn(C)c78)[C@H](F)C6)CC5)nc4C(F)F)c3n2)CCO1 (single isomer, unassigned) [Chiral isomer 2 of compound 23]
DC50 (IRAK4 protein): < 0.02 µM | IC50 [2, 3]: > 40 µM

Cn1nc(C2CCC(=O)NC2=O)c2cccc(C#CCO[C@H]3CCN(C[C@H]4CC[C@H](n5cc(NC(=O)c6cnn7ccc(N8CCO[C@H](CO)C8)nc67)c(C(F)F)n5)CC4)C[C@H]3F)c21 (single isomer, unassigned) [Chiral isomer 2 of compound 25]
DC50 (IRAK4 protein): < 0.02 µM | IC50 [2, 3]: > 40 µM

Cn1nc(C2CCC(=O)NC2=O)c2cccc(C#CCO[C@@H]3CCN(C[C@H]4CC[C@H](n5cc(NC(=O)c6cnn7ccc(N8CCO[C@@H](CO)C8)nc67)c(C(F)F)n5)CC4)C[C@@H]3F)c21 (single isomer, unassigned) [Trifluoroacetate salt of chiral isomer 2 of compound 19]
AUC(0-t) [1, 4]: 8300 ± 2850 ng·h/mL | IC50 [2, 3]: > 40 µM

CN(C[C@H]1CC[C@H](n2cc(NC(=O)c3cnn4ccc(N5C[C@H]6C[C@@H]5CO6)nc34)c(C(F)F)n2)CC1)C1CCN(Cc2cccc3c(C4CCC(=O)NC4=O)nn(C)c23)CC1 (stereo partly shown) [Compound 1]
Remaining IRAK4 protein IRAK4% (IRAK4 protein): B (10% < B ≤ 50%)

CCn1nc(C2CCC(=O)NC2=O)c2cccc(C#CCOC3CCN(C[C@H]4CC[C@H](n5cc(NC(=O)c6cnn7ccc(N8C[C@H]9C[C@@H]8CO9)nc67)c(C(F)F)n5)CC4)CC3)c21 (stereo partly shown) [Compound 6]
Remaining IRAK4 protein IRAK4% (IRAK4 protein): A (A ≤ 10%)

Cn1nc(C2CCC(=O)NC2=O)c2cccc(C#CCO[C@@H]3CCN(C[C@H]4CC[C@H](n5cc(NC(=O)c6cnn7ccc(N8C[C@H]9C[C@@H]8CO9)nc67)c(C(F)F)n5)CC4)C[C@@H]3F)c21 (stereo partly shown) [Compound 10]
Remaining IRAK4 protein IRAK4% (IRAK4 protein): A (A ≤ 10%) | AUC(0-t) [1, 4]: 17500 ± 5260 ng·h/mL | IC50 [2, 3]: > 30 µM

Cn1nc(C2CCC(=O)NC2=O)c2cccc(C#CCO[C@H]3CCN(C[C@H]4CC[C@H](n5cc(NC(=O)c6cnn7ccc(N8C[C@H]9C[C@@H]8CO9)nc67)c(C(F)F)n5)CC4)C[C@@H]3F)c21 (stereo partly shown) [Compound 12]
Remaining IRAK4 protein IRAK4% (IRAK4 protein): B (10% < B ≤ 50%) | IC50 [2, 3]: > 30 µM

Cn1nc(C2CCC(=O)NC2=O)c2cccc(C#CCO[C@@H]3CCN(C[C@H]4CC[C@H](n5cc(NC(=O)c6cnn7ccc(N8C[C@H]9C[C@@H]8CO9)nc67)c(C(F)F)n5)CC4)C[C@H]3F)c21 (stereo partly shown) [Compound 13]
Remaining IRAK4 protein IRAK4% (IRAK4 protein): B (10% < B ≤ 50%)

O=C1CCC(c2nn(C3CC3)c3c(C#CCOC4CCN(C[C@H]5CC[C@H](n6cc(NC(=O)c7cnn8ccc(N9C[C@H]%10C[C@@H]9CO%10)nc78)c(C(F)F)n6)CC5)CC4)cccc23)C(=O)N1 (stereo partly shown) [Compound 16]
Remaining IRAK4 protein IRAK4% (IRAK4 protein): A (A ≤ 10%)

Cn1c(=O)n(C2CCC(=O)NC2=O)c2cccc(C#CCOC3CCN(C[C@H]4CC[C@H](n5cc(NC(=O)c6cnn7ccc(N8C[C@H]9C[C@@H]8CO9)nc67)c(C(F)F)n5)CC4)CC3)c21 (stereo partly shown) [Control compound 1, reference compound]
AUC(0-t) [1, 4]: 2320 ± 146 ng·h/mL | IC50 ([2]; IC50 for inhibitory effect on hERG potassium channel current): 0.642 µM

Cn1nc(C2CCC(=O)NC2=O)c2cccc(C#CCOC3CCN(C[C@H]4CC[C@H](n5cc(NC(=O)c6cnn7cc(F)c(N8C[C@H]9C[C@@H]8CO9)nc67)c(C(F)F)n5)CC4)CC3)c21 (stereo partly shown) [Trifluoroacetate salt of compound 15]
Remaining IRAK4 protein IRAK4% (IRAK4 protein): B (10% < B ≤ 50%)
